Assay results taken from PMC9230455 (Pharmaceuticals, 2022).
Each block holds one molecule with its values, some of them ahead of it.

Key:
[1] = system: impaired glucose tolerance (IGT) mice; test: Oral glucose tolerance test in impaired glucose tolerance (IGT) mice; assay type: in vivo, mouse; set-up: AUC of Day 1, Blood glucose level (120 min): unit not given beside the values; conditions: for Blood Glucose Value of 30 min: 30 min after 2.5 g/kg glucose gavage; for Blood Glucose Value of 30 min / Blood Glucose Value of 60 min / Blood Glucose Value of 90 min / Blood Glucose Value of 120 min / Fasting Blood Glucose Level: M ± SD, n = 8; for Blood Glucose Value of 60 min: 60 min after 2.5 g/kg glucose gavage; for Blood Glucose Value of 90 min: 90 min after 2.5 g/kg glucose gavage; for Blood Glucose Value of 120 min: 120 min after 2.5 g/kg glucose gavage
Experimental: After in vitro experiments were conducted to investigate the DPP-4 inhibition ability and receptor affinity of GLP-1RAs, further in vivo experiments were conducted to compare the hypoglycemic effects of GLP-1RAs on impaired glucose tolerance (IGT) mice. The model of IGT mice was established by a one-week injection of streptozotocin, compared with the normal glucose tolerance (NGT) group, the increase in blood glucose in the IGT group after intragastric glucose administration was statistically significant, and the increase in blood glucose in each experimental group was similar after grouping (as shown in Table A2). Each group was fasted for 9 h before the last administration, fasting blood glucose (FBG) was measured one hour after administration, and then an oral glucose tolerance test (OGTT) was performed.
After fasting for 9 h, the OGTT was performed again the next day. The duration of GLP-1RAs was measured using the second day’s OGTT. […] The blood glucose level of the G1 group was lower than that of the vehicle group at each time point, and the difference was statistically significant. […] The blood sugar of IGT mice can be well controlled at a level equivalent to that of NGT mice, and the effect time of the drug was more than 24 h.
Male KM mice age 6–8 weeks with weight of 18–25 g were selected and injected with STZ at a dose of 40 mg/kg per mouse to establish mouse model of IGT. One week after the injection, OGTT was performed. Blood was collected from the tail tip of each mouse to measure the blood glucose concentration. Mice with blood glucose level increase greater than 200% after intragastric administration of glucose were selected. […] The NGT and vehicle groups were treated with normal saline, and the other groups were treated with the corresponding protein solution diluted to 20 µmol/L with normal saline. Each mouse was injected with 25 µL/10 g body weight. The FBG of each group was measured one hour after the last administration, and then 2.5 g/kg glucose solution was administered by gavage immediately, and blood glucose was measured at 30, 60, 90, and 120 min after gavage. The FBG was measured the same time the next day, and the glucose solution was administered by gavage again at 2.5 g/kg. Blood glucose was measured 30, 60, 90, and 120 min after gavage. The statistical software GraphPad Prism 8.0, was used to process the data. The blood glucose level at each time point was compared between the groups using two-way analysis of variance. p < 0.05 was considered statistically different.

[2] = target: dipeptidyl peptidase-4 (DPP-4) (UniProt P27487)
[3] = first day OGTT, 20 µmol/L protein, 25 µL/10 g injected

Sequence of UniProt P27487 (P27487 whole entry): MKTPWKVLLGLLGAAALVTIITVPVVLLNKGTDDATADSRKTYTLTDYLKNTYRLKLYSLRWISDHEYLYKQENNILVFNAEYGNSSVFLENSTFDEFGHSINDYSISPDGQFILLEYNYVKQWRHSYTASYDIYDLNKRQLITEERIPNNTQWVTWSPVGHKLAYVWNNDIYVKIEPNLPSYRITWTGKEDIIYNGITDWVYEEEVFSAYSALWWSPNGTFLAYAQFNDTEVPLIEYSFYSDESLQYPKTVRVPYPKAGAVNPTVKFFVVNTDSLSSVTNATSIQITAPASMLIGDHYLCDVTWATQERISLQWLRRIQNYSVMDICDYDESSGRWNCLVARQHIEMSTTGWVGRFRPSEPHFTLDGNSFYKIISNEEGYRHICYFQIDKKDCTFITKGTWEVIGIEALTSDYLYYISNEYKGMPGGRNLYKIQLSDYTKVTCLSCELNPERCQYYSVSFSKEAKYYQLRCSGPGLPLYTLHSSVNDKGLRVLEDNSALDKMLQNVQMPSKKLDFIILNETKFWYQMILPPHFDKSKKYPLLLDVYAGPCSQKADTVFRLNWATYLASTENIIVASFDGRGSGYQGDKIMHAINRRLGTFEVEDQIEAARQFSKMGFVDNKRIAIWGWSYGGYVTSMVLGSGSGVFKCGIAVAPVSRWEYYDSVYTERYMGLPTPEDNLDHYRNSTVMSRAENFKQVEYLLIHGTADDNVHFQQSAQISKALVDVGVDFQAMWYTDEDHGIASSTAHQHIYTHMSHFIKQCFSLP

Molecule: CC[C@H](C)[C@H](NC(=O)[C@H](Cc1ccccc1)NC(=O)[C@H](CCC(=O)O)NC(=O)[C@H](CCCCN)NC(=O)[C@H](C)NC(=O)[C@H](C)NC(=O)[C@H](CCC(N)=O)NC(=O)CNC(=O)[C@H](CCC(=O)O)NC(=O)[C@H](CC(C)C)NC(=O)[C@H](Cc1ccc(O)cc1)NC(=O)[C@H](CO)NC(=O)[C@H](CO)NC(=O)[C@@H](NC(=O)[C@H](CC(=O)O)NC(=O)[C@H](CO)NC(=O)[C@@H](NC(=O)[C@H](Cc1ccccc1)NC(=O)[C@@H](NC(=O)CNC(=O)[C@H](CCC(=O)O)NC(=O)[C@H](C)NC(=O)[C@@H](N)Cc1c[nH]cn1)[C@@H](C)O)[C@@H](C)O)C(C)C)C(=O)N[C@@H](C)C(=O)N[C@@H](Cc1c[nH]c2ccccc12)C(=O)N[C@@H](CC(C)C)C(=O)N[C@H](C(=O)N[C@@H](CCCCN)C(=O)NCC(=O)N[C@@H](CCCNC(=N)N)C(N)=O)C(C)C [GLP-1, Glucagon-like peptide-1]
- AUC of Day 1, Blood glucose level (120 min) ([1]; first day OGTT in IGT mice, 0-120 min, vehicle 60.54, NGT 40.57): 47.54
- Blood Glucose Value of 30 min [1, 3]: 18.2 ± 1.9 mmol/L
- Blood Glucose Value of 60 min [1, 3]: 13.6 ± 1.7 mmol/L
- Blood Glucose Value of 90 min [1, 3]: 9.3 ± 2.3 mmol/L
- Blood Glucose Value of 120 min [1, 3]: 7.9 ± 1.3 mmol/L
- Fasting Blood Glucose Level ([1]; first day, IGT mice (STZ, male KM), fasted 9 h, one hour after last administration, 20 µmol/L protein, 25 µL/10 g injected): 4.9 ± 0.7 mmol/L
- Fasting Blood Glucose Level ([1]; second day (no new dose), IGT mice fasted 9 h): 5.9 ± 1.1 mmol/L
- Blood Glucose Value of 30 min ([1]; second day OGTT): 25.1 ± 4.1 mmol/L
- Blood Glucose Value of 60 min ([1]; second day OGTT): 18.2 ± 3.4 mmol/L
- Blood Glucose Value of 90 min ([1]; second day OGTT): 11.6 ± 1.9 mmol/L
- Blood Glucose Value of 120 min ([1]; second day OGTT): 9.2 ± 1.3 mmol/L

Molecule: human GLP-1 (glucagon-like peptide-1)
- Area Under Curve of the residual percentage (ELISA) during digestion with excess DPP-4, up to 24 h, 30 °C, PBS pH 7.4 [2]: 1.02

Molecule: G1 (GLP-1 receptor agonist: GLP-1 Val33Cys, linker GCGGGGGG, antiparallel β lamellar domain of superoxide dismutase at the C-terminus) (designed binder)
- Area Under Curve of the residual percentage (ELISA) during digestion with excess DPP-4, up to 24 h, 30 °C, PBS pH 7.4 [2]: 5.14

More lines, now with the values ahead:

- Area Under Curve of the residual percentage (ELISA) during digestion with excess DPP-4, up to 24 h, 30 °C, PBS pH 7.4 [2]: 1.34
Molecule: G2 (GLP-1 receptor agonist: antiparallel β lamellar domain of superoxide dismutase at the amino terminus of GLP-1) (designed binder)

- Area Under Curve of the residual percentage (ELISA) during digestion with excess DPP-4, up to 24 h, 30 °C, PBS pH 7.4 [2]: 2.47
Molecule: G4 (GLP-1 receptor agonist: GLP-1 Ser18Cys with the antiparallel β lamellar domain of superoxide dismutase at the C-terminus, without the linker) (designed binder)
